Results published in US20230357154A1 (priority 2019, published 2023).
Read-outs that look alike come from different tables or passages of the source.

Key:
[1] = mouse, in vivo; for CA (pooled): BChE-KO, 5XFAD-BChE-KO (pooled)
[2] = format: in vivo; conditions: 5XFAD mouse, IV, 3D SPECT

For `O=C(OCc1ccc(I)cc1)c1cccc(=O)[nH]1` [TRV7005, (p-Iodophenyl)methyl 6-oxo-1H-pyridine-2-carboxylate], the “time of peak radioligand uptake in brain” value ([1]; 5XFAD and WT (wild-type)) was 2 minutes post-injection, the “CA (pooled)” value ([1]; 5XFAD, WT) was 45.4 ± 2.4 % Cmax and the t1/2 clearance ([1]; 5XFAD) was 6.51 ± 1.19 min. The “CA (asymptotic tracer concentration)” value ([1]; 5XFAD-BChE-KO) was 42.8 % Cmax, the t1/2 clearance ([1]; WT) was 7.21 ± 1.75 min and the “kclearance (pooled)” value [1] was 0.11 ± 0.02 min⁻¹.
For `Cn1c(C(=O)OCc2ccc(I)cc2)cccc1=O` [TRV7006, (p-Iodophenyl)methyl 1-methyl-6-oxo-1H-pyridine-2-carboxylate], the “CA (pooled)” value ([1]; 5XFAD, WT) was 51.6 ± 3.4 % Cmax, the “time of peak radioligand uptake in brain” value ([1]; WT and BChE-KO) was 2 minutes post-injection and the t1/2 clearance ([1]; WT) was 4.72 ± 0.93 min. The “kclearance (pooled)” value [1] was 0.17 ± 0.03 min⁻¹.
In the case of `COc1cccc(C(=O)OCc2ccc(I)cc2)n1` [TRV7019, (p-iodophenyl)methyl 6-methoxy-2-pyridinecarboxylate], the “time of peak radioligand uptake in brain” value ([1]; 5XFAD and WT) is reported as 1 minutes post-injection, the decrease in kclearance ([1]; 5XFAD compared to WT) is reported as 58% and the “increase in t1/2clearance” value ([1]; 5XFAD compared to WT) is reported as 82%. The “CA (pooled)” value ([1]; 5XFAD, WT) was 56.1 ± 3.5 % Cmax, the t1/2 clearance ([1]; 5XFAD) was 3.22 ± 0.55 min and the t1/2 clearance ([1]; WT) was 1.77 ± 0.15 min. For the same compound, the t1/2 clearance [1] was 1.77 ± 0..15 min.
In the case of `O=C(OCc1ccccc1)c1cccc(OCc2ccc(I)cc2)n1` [TRV7040, Benzyl 6-[(p-iodophenyl)methoxy]-2-pyridinecarboxylate], the “distribution of the tracer in vivo (extracranial)” value [2] is reported as “avid uptake of TRV7040 is seen in the eye and hardarian glands”, the “radioligand reaching the brain” value [2] is reported as “negligible radioligand reaching the brain” and the “ability to cross the blood-brain barrier / brain uptake” value ([1]; iv, 60 min) is reported as “inability of TRV7040 to cross the BBB and reach the brain”.
